Consider three compounds from article PMC3297008, “Novel Marine Phenazines as Potential Cancer Chemopreventive and Anti-Inflammatory Agents” (Marine Drugs, 2012).

The subject of assay [1] is 5-α-reductase. Details: method as in PMID 2503481. To be noted: derived from rat prostate; cited from earlier work.
For assay [2], the system named is NO production in LPS-induced RAW 264.7 cells. The experiment in a line: LPS-induced NO production in RAW 264.7 cells (Griess reagent). To be noted: for NO % inhibition (50 µM): LPS-induced RAW 264.7 cells; for inhibition at 50 µM / IC50: Mus musculus; for inhibition at 50 µM: RAW264.7, read-out: NO % inhibition (50 µM), LPS-induced RAW 264.7 cells, 50 µM; for IC50: RAW264.7, read-out: NO IC50.
Description: The amount of nitrite was measured using the Griess reagent to assess the NO production [47, 48]. […] The cells were treated with various concentrations of compounds dissolved in phenol-red free DMEM for 30 min followed by 1 μg/mL of LPS treatment for 24 h. […] The standard curve was created by using known concentrations of sodium nitrite.

The target of assay [3] is T1, ovine COX-1 (Ovis aries, UniProt P05979).
T1 sequence (P05979 25-600): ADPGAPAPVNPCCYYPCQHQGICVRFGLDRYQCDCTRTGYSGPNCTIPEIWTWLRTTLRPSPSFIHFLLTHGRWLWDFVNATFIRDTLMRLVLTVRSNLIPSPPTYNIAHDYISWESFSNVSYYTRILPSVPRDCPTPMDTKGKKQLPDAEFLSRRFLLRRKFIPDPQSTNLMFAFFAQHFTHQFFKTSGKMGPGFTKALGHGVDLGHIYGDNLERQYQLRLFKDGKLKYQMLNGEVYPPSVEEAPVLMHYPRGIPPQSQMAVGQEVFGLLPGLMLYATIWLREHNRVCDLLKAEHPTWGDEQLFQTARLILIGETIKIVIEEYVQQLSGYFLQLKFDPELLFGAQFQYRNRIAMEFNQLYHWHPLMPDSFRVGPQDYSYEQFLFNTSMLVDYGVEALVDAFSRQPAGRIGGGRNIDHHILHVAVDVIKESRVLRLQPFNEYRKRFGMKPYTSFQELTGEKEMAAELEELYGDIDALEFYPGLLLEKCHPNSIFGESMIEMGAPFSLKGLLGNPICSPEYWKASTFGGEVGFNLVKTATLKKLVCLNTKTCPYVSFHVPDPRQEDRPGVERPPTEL
Description: COX-1 inhibition assay (LC-MS/MS of PGE2). The format is biochemical. The procedure: Each COX reaction was initiated by adding 20 µL of arachidonic acid in Tris-HCl (pH 8.0) buffer to give a final concentration of 5 µM. The reaction was terminated after 2 min by adding 20 µL of 2.0 M HCl. The surrogate standard PGE2-d4 was added to correct for errors or degradation during sample handling and for variation in injection volume or instrument response during LC-MS/MS. After 30 min, PGE2 and its surrogate standard were extracted from each incubation mixture using 800 µL of hexane/ethyl acetate (50:50, v/v). The organic phase was removed, evaporated to dryness, and reconstituted in 100 µL methanol/water (50:50, v/v) for analysis using LC-MS/MS with an Applied Biosystems AP4000 triple quadrupole mass spectrometer as described previously. The concentration of PGE2 in each sample was measured using LC-MS/MS, and the percent of COX inhibition by each test solution was determined by comparing the amount of PGE2 produced in the experiment with that produced in the negative control incubation. For IC50 value determination, 12 different concentrations of each inhibitor were assayed three times. The IC50 value of each inhibitor toward COX-1 or COX-2 was determined by plotting and analyzing the inhibition curve data using Graph Pad Prism 5 software. The selectivity of each inhibitor was calculated as the ratio of the IC50 values (COX-1/COX-2).

The test system of assay [4] is P388 cells. Details: method as in PMID 2753825. To be noted: cited from earlier work.
The test system of assay [5] is 5-α-reductase. Details: method as in PMID 2503481. To be noted: derived from human prostate; cited from earlier work.
Assay [6] concerns 5-α-reductase. Details: method as in PMID 2503481. To be noted: derived from dog prostate; cited from earlier work.
Assay [7] relates to L1210 cells. Details: method as in PMID 2753825. Particulars: cited from earlier work.

SMILES strings stand for the structures. Read-outs that look alike come from different tables or passages of the source.

With `CC1=C(Cn2c3cccc(=O)c-3nc3ccccc32)CCC(C)(C)C1` [Lavanducyanin 3, lavanducyanin], the “inhibition of 5-α-reductase” value in assay [1], in assay [5] and in assay [6] was “competitively inhibits” in each case. Besides, in assay [2], the “NO % inhibition (50 µM)” value is 97 ± 0.7%. The inhibition (in general, the relative decrease from the control value, in per cent) at 50 µM in assay [2] was above 90%. The results for the IC50 in assay [2] and in assay [3] were 8 ± 0.39 µM and 30 ± 1.08 µM, respectively. Moreover, in assay [4], the “growth inhibition of P388 cells in culture” value is listed as “strongly inhibits the growth”. Moreover, in assay [7], the “growth inhibition of L1210 cells in culture” value is “strongly inhibits the growth”.

As for `CC1=C(Cn2c3ccc(Br)c(=O)c-3nc3ccccc32)CCC(C)(C)C1` [Phenazine 1], in assay [2], the “NO % inhibition (50 µM)” value turned out to be 40.1 ± 5%, the inhibition at 50 µM was found to be 40% and the IC50 (usually the concentration that gives 50% inhibition) is above 48.6 µM. In assay [3], this compound displayed an IC50 of 11 ± 0.53 µM.

Consider `CC(C)=CCn1c2ccc(Br)c(=O)c-2nc2ccccc21` [Phenazine 2], for which, in assay [2], the “NO % inhibition (50 µM)” value is recorded as 98.1 ± 0.5%, the inhibition at 50 µM was above 90% and the IC50 turned out to be 15.1 ± 2.7 µM. Also, in assay [3], the IC50 amounted to 5.6 ± 0.61 µM.
